Ten compounds from PubChem BioAssay (NCI) can be followed below.

Experiment in all cases: NCI-60 cell line screen, 48 h
Assay [1] deals with HCC-2998 colon.
The subject of assay [2] is HOP-92 NSCLC.
Assay [3] relates to NCI-H23 lung.
Assay [4] concerns SK-OV-3 ovarian.
For assay [5], the system named is CAKI-1 renal.
Assay [6] has as its system RXF 393 renal.
In assay [7] the test system is TK-10 renal.
Assay [8] has as its system KM12 colon.
Assay [9] concerns HOP-62 NSCLC.
Assay [10] relates to SN12C renal.

Where “and” joins values, the source holds several entries; their conditions need not be identical. Identical values can stand only once.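 Five compound concentrations were applied to cells in 96-well plates for 48 hours; endpoints were derived by simple linear interpolation of the resulting dose-response curve. Abbreviation: GI50, concentration required for 50% inhibition of growth. At the TGI there is no net growth.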 Bounds are passed on as bounds.

Regarding `CCOC(=O)C(=Cc1cccc(Cl)c1)C(=O)OCC`, the GI50 is 1.79 µM in assay [1]; 1.74 µM in assay [2]; 2.32 µM in assay [3]; 10.6 µM in assay [4]; 2.19 µM in assay [5]; 1.91 µM in [6]. Moreover, the GI50 in assay [7] is 2.46 µM; in [8], 2.35 µM; in assay [9], 2.69 µM; in [10], 1.65 µM. The TGI was 3.24 µM in [1]; 4.49 µM in [2]; 6.45 µM in [3]; 22.4 µM in assay [4]; 5.45 µM in assay [5]; 3.53 µM in [6]. In addition, the TGI in assay [7] turned out to be 6.08 µM; in [8] it was 5.8 µM; in [9] it was 7.58 µM; in assay [10], 3.54 µM.
Turning to `O=C1c2ccccc2C2(O)c3cc4ccccc4cc3OC12O` (centres undefined), the TGI was above 100 µM in assay [1]; 80.4 µM in assay [2]; above 100 µM in [3]; above 100 µM in assay [4]; above 100 µM in assay [5]; 97.6 µM in assay [6]. The TGI in assay [7], in assay [8], in [9] and in assay [10] was above 100 µM throughout.
For `CCCNC(=S)/N=C/c1c(O)c2ccccc2[nH]c1=O`, the TGI in [1], in [2], in assay [3], in [4], in assay [5] and in assay [6] was above 100 µM in each case. The TGI in assay [7], in assay [8], in assay [9] and in assay [10] was above 100 µM each time.
With `CC(=O)c1cc2c(o1)C(=O)c1ccccc1C2=O`, the GI50 in [1] was 0.46 µM and 0.261 µM; in assay [2], 2.18 µM and 1.82 µM; in assay [3], 0.19 µM and 0.153 µM; in assay [4] it was 1.41 µM and 1.78 µM; in assay [5] it was 1.45 µM and 0.823 µM; in assay [6] it was 0.239 µM and 0.249 µM. The GI50 in assay [7] is 0.248 µM and 1.4 µM; in assay [8], 0.543 µM and 0.713 µM; in assay [9], 0.163 µM and 0.186 µM; in assay [10] it was 0.177 µM. For the same compound, the TGI in assay [1] is 0.993 µM and 0.689 µM; in [2], 4.24 µM and 3.47 µM; in assay [3], 0.535 µM and 0.458 µM; in [4], 2.86 µM and 3.3 µM; in assay [5], 2.93 µM and 2.24 µM; in [6], 0.563 µM and 0.634 µM. Moreover, the TGI was 0.595 µM and 2.9 µM in assay [7]; 1.62 µM and 2.09 µM in assay [8]; 0.329 µM and 0.35 µM in assay [9]; 0.346 µM in assay [10].
On to `Cn1cnc([N+](=O)[O-])c1S(=O)(=O)Oc1ccccc1`, for which the GI50 in assay [1] was 19.3 µM; in assay [2], 5.85 µM; in assay [3], 15 µM; in assay [4], 97.5 µM; in assay [5] it was 1.66 µM; in assay [6], 2.23 µM. The GI50 is 1.99 µM in assay [7], 26.2 µM in assay [8], 19.3 µM in assay [9] and 21.5 µM in assay [10]. Besides, the TGI was 40.7 µM in [1]; 19.1 µM in assay [2]; 37.9 µM in [3]; above 100 µM in assay [4]; 3.41 µM in assay [5]; 6.04 µM in [6]. Moreover, the TGI in [7] is 3.81 µM; in [8], above 78.4 µM; in assay [9], 39 µM; in [10], above 71.7 µM.
Consider `Nc1nccc2c1ccn2-c1ccc(NC(=O)c2ccc(N3CCOCC3)c(C(F)(F)F)c2)cc1`, for which the GI50 in assay [1] was 2.98 µM; in assay [2] it was 0.418 µM; in [3], 0.94 µM; in assay [4] it was 2.44 µM; in assay [5], 0.484 µM; in assay [6] it was 0.158 µM. The GI50 in assay [7] was 1.52 µM; in assay [8], 0.557 µM; in assay [9], 0.342 µM; in [10], 4.86 µM. Moreover, the TGI in assay [1] was 29.1 µM; in assay [2] it was 3.84 µM; in [3], 17.3 µM; in [4], 23.5 µM; in [5] it was 3.45 µM; in assay [6], 0.378 µM. In addition, the TGI in assay [7] is 9.75 µM; in assay [8], 8.5 µM; in assay [9], 1.73 µM; in assay [10], 20.4 µM.
In the case of `Cc1ccc(NC(=O)C2C(=O)N(c3ccc(C)c(C)c3)C(=O)C2N=N)cc1C` (centres undefined), the TGI in assay [1], in assay [2], in assay [3], in [4], in assay [5] and in [6] was above 100 µM in each case. The TGI in assay [7], in assay [8], in assay [9] and in [10] was above 100 µM in each case.
For the compound `CC(=O)OC12c3ccccc3-c3ccccc3C1C1C(=O)N(C)C(=O)C12Cl` (centres undefined), the TGI in assay [1], in assay [2], in assay [3], in assay [4], in [5] and in [6] was above 10 µM each time. Besides, the TGI in assay [7], in [8], in assay [9] and in assay [10] was above 10 µM in each case.
`COc1ccncc1C#Cc1cncc(C(=O)Nc2ccc(CN3CCN(C)CC3)c(C(F)(F)F)c2)c1`: the GI50 in [1] is 24.8 µM; in assay [2], 4.83 µM; in assay [3], 16.3 µM; in assay [4], 28.9 µM; in [5], 22.6 µM; in assay [6], 15.7 µM. Further, the GI50 in assay [7] is 47.1 µM; in [8], 0.326 µM; in [9], 20.9 µM; in assay [10], 16.8 µM. Moreover, the TGI in assay [1] is above 100 µM; in assay [2] it was 57.2 µM; in [3] it was above 100 µM; in assay [4], above 100 µM; in assay [5] it was above 100 µM; in assay [6], 49.5 µM. Also, the TGI in assay [7] was above 100 µM; in [8], 64.5 µM; in assay [9] it was above 100 µM; in assay [10], above 100 µM.
On to `COC1C(O)=C2C(=O)O/C(C)=C/C=C/C=C/C=C\CC(c3ccccc3)NC(=O)\C=C/C=C\C=C\C=C\[C@@]2(C)[C@@H]1O` (some centres undefined), for which the TGI in assay [1] is 0.586 µM; in assay [2], below 0.0199 µM; in assay [4] it was 0.188 µM; in [5] it was 0.0582 µM; in [6], 0.0962 µM; in assay [7], 0.272 µM. Moreover, the TGI turned out to be 0.165 µM in assay [8], 0.146 µM in assay [9] and 0.538 µM in [10].
